# US8148386B2, “Agent for the prevention and treatment of prostatic hyperplasia comprising pyrazolopyrimidinone compound” (priority 2006, dated 2012)
# Where two headings read alike, the source gives them in different places.
# What was measured:
# [1] = Interrupt rate of administration due to side effects of PDE-5 inhibitors after clinical trials on impotence
# [2] = cited from earlier work
# [3] = tested on: BPH rat models; experiment: Single administration: intraurethral pressure in BPH rat models; assay type: in vivo, Wistar rats
# Method: In the present experiment, thirty male white […] rats of 300 to 350 g were randomly divided into five control groups of six rats. The first group (1') was left untreated as a normal group and the other groups were those whose testicles were resected. From a couple of days after the operations, each rat in the third to fifth groups was given a daily hypodermic injection of 1 mg of testosterone and 0.01 mg of 17 beta-estradiol for 8 weeks. After 8 weeks, all rats were anesthetized by an intraperitoneal injection with 50 mg/kg of pentobarbital, and intubated with polyethylene needles. The second group (2') was those whose testicles were resected only; the third group (3') was treated with a solvent; the fourth group (4') was treated with 0.3 mg/kg of the pyrazolopyrimidinone compound of formula 1; and the fifth group (5') was treated with 1 mg/kg of the pyrazolopyrimidinone compound of formula 1, the fourth and fifth groups being administrated via intravenous injections. […] In the measurement, 5, 10 and 20 Hz of electrostimulations were applied to hypogastric nerves using a stainless steel anode electrode, and the measured results were shown in FIGS. 5 to 8.
# [4] = Phase 1 clinical trial: safety, tolerability and pharmacokinetics in healthy adults; assay type: in vivo, human
# [5] = molecular target: PDE-5 (Homo sapiens, UniProt O76074); experiment: Inhibition of PDE-5 activity; assay type: biochemical
# [6] = molecular target: PDE-11 (Homo sapiens, UniProt Q9HCR9)
# Chain of PDE-11 (Q9HCR9 whole entry): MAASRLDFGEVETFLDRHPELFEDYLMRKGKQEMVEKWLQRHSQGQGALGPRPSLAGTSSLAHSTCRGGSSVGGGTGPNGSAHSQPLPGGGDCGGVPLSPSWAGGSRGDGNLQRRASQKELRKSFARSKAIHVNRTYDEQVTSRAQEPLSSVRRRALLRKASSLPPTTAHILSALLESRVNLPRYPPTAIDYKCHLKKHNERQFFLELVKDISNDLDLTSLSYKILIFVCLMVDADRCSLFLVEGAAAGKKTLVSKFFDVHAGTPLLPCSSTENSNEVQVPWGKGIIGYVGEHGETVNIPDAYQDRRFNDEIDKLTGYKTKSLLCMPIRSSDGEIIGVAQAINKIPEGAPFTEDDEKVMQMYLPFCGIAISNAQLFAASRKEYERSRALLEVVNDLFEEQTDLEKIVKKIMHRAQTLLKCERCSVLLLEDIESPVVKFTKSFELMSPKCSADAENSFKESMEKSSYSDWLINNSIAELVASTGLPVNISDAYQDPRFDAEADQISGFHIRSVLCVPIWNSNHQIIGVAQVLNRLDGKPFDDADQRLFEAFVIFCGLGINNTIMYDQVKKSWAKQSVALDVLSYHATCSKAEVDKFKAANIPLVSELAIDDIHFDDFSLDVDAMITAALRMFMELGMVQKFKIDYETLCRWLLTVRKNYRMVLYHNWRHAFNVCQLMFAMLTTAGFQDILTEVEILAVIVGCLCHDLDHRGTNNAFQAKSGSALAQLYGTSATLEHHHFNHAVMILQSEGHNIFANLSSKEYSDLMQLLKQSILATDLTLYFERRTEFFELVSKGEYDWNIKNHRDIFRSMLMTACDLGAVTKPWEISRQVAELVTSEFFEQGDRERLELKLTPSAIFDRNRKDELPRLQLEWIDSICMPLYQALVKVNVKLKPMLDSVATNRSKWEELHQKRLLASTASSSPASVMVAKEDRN
# [7] = Pharmacokinetic experiment in the human body (BPH patients); assay type: in vivo
# Method: The test was carried out in a double-blind manner and the participants were administrated with the test drugs with 240 ml of water at 8:00 to 9:00 am of the test day. After administration, all participants were fasted for four hours. After the fast, they were served a lunch of standard diet and provided a dinner of standard diet nine hours after the lunch. Blood collections were carried out before administrating the test drugs and 0.5, 1, 1.5, 2, 2.5, 3, 4, 5, 6, 8, 12 and 24 hours after the administration on the test day. From the bloods collected, blood plasmas were separated and analyzed using high performance liquid chromatography (HPLC). […] of 0.1 M sodium carbonate and 1.0 ml of ethylether were added to each 0.5 ml of blood plasma and mixed well for one minute. Then, the resultant solutions were centrifuged at […] for three minutes. Subsequently, the supernatants were collected, from which organic solvents were volatilized using a Speed-Vac, to which […] of mobile phases were added, stirred and injected into the high performance liquid chromatography (HPLC).
# [8] = tested on: BPH rat models; experiment: Repeated administration: intraurethral pressure in BPH rat models; assay type: in vivo, Wistar rats; details: oral 1, 5 and 20 mg/kg for 8 weeks; 5, 10 and 20 Hz electrostimulation of hypogastric nerves; FIGS. 1 to 4
# Method: In the present experiment, thirty-six male white Wistar rats of 300 to 350 g were randomly divided into six control groups of six rats. The first group (1) was left untreated as a normal control group and the other groups were those whose testicles were […]. From a couple of days after the operations, each rat in the third to sixth groups was given a daily hypodermic injection of 1 mg of testosterone and 0.01 mg of 17 beta-estradiol for 8 weeks. The second group (2) was those whose testicles were […] only; the third group (3) was treated with a solvent; the fourth group (4) was treated with 1 mg/kg of the pyrazolopyrimidinone compound of formula 1; the fifth group (5) was treated with 5 mg/kg of the pyrazolopyrimidinone compound of formula 1; and the sixth group (6) was treated with 20 mg/kg of the pyrazolopyrimidinone compound of formula 1, the fourth to sixth groups being orally administrated for 8 weeks. After 8 weeks, all rats were anesthetized by an intraperitoneal injection with 50 mg/kg of pentobarbital, and intubated with polyethylene needles. […] In the measurement, 5, 10 and 20 Hz of electrostimulations were applied to hypogastric nerves using a stainless steel anode electrode, and the measured results were shown in FIGS. 1 to 4.
# [9] = Xenobiotica 2004 34:973-982; cited from earlier work
# [10] = Tissue distribution in urogenital organs; details: male, Sprague-Dawley, rat, 30 mg/kg
# Method: Male white Sprague-Dawley (SD) rats were randomly assigned by four to five rats at different time points. […] At different time points of 30 minutes, 2 hours and 6 hours after administration, bloods were collected through abdominal aortas and urogenital organs were extracted. Phosphate buffer of pH 7.4 was added to the extracted organs to be homogenized. […] Analyses were performed using a Hichrom HIRPB column (150×4.6 mm, particle size: 5 μm) at fixed wavelength of 292 nm with a mobile phase mixed with 20 nM of KH2PO4 and acetonitrile in a volume ratio of 70:30. The mobile phase flow rate was 1 ml/min. and the amount of sample introduced was 100 ml.
compound,measurement,setting,value
CCCc1nc(C)c2c(=O)[nH]c(-c3cc(S(=O)(=O)N4CCN(CC)CC4)ccc3OCC)nn12 [Levitra],Interrupt rate (%) of administration due to side effects,[1]; 5 mg,2.7%
same,Interrupt rate (%) of administration due to side effects,[1]; 10 mg,2.9%
same,Interrupt rate (%) of administration due to side effects,[1]; 20 mg,6.6%
CN1CC(=O)N2[C@H](c3ccc4c(c3)OCO4)c3[nH]c4ccccc4c3C[C@@H]2C1=O [Cialis],Interrupt rate (%) of administration due to side effects,[1]; 5 mg,0.7%
same,Interrupt rate (%) of administration due to side effects,[1]; 10 mg,1.6%
same,Interrupt rate (%) of administration due to side effects,[1]; 20 mg,3.1%
same,IPSS change,[2]; 5 mg once a day for 6 weeks,2.8 points
same,IPSS change,"[2]; dose increased to 20 mg, additional 6 weeks",3.8 points
same,interrupt rate of administration due to the side effects,[2]; phase 2 clinical trial,3.6%
"CCCOc1ccc(S(=O)(=O)NCCC2CCCN2C)cc1-c1nc2c(CCC)nn(C)c2c(=O)[nH]1 (stereo not shown) [Compound of formula 1, 5-[2-propyloxy-5-(1-methyl-2-pyrrolidinylethylamidosulfonyl)phenyl]-1-methyl-propyl-1,6-dihydro-7H-pyrazolo(4,3-d)pyrimidin-7-one]","intraurethral pressure, significance of decrease","[3]; 0.3 mg/kg intravenous, 5 and 10 Hz",did not show significant decreases
same,"intraurethral pressure, significance of change","[3]; 0.3 mg/kg intravenous, 20 Hz",significant increase
same,prevention of increases in the intraurethral pressure in comparison with sildenafil,"[3]; single administration, sildenafil of same volume",excellent effects
same,increases in the intraurethral pressure,"[3]; single intravenous injection 0.3 and 1 mg/kg, FIGS. 5 to 8",prevented dose-dependently
same,half-life,"[4]; human, in vivo, oral, regardless of the doses administrated, healthy adults",9 to 15 h
same,Tmax,"[4]; human, in vivo, after oral administration, healthy adults",1 to 2 h
same,abnormal responses to the test substance,[4]; phase 1 clinical trial,no serious abnormal responses
same,accumulation of drug,[4]; repeated administration once a day for 7 days,not observed
same,inhibitive activity for PDE-5,[5],strong inhibitive activity
same,selectivity for PDE-5,[5],excellent selectivity
same,Interrupt rate (%) of administration due to side effects,[1]; 100 mg,0.0%
same,Interrupt rate (%) of administration due to side effects,[1]; 200 mg,1.2%
same,inhibition of the activity of PDE-11,[6],does not have an inhibiting power
same,half-life,"[7]; human, in vivo, 100 mg",12.1 ± 3.2 h
same,half-life,"[7]; male, human, in vivo",9 to 15 h
same,intraurethral pressures (IUP),[8],decreased dose-dependently and significantly
same,residual rate after liver metabolism,[9],93.0%
CCCc1nn(C)c2c(=O)[nH]c(-c3cc(S(=O)(=O)N4CCN(C)CC4)ccc3OCC)nc12 [Sildenafil],concentration at 30 min,[10],319 ng/mL
same,concentration at 120 min,[10],633 ng/mL
same,concentration at 360 min,[10],259 ng/mL
same,Interrupt rate (%) of administration due to side effects,[1]; 25 mg,0.0%
same,Interrupt rate (%) of administration due to side effects,[1]; 50 mg,0.7%
same,Interrupt rate (%) of administration due to side effects,[1]; 100 mg,3.9%
same,half-life,"[7]; 50 mg, BPH patients, plasma",4.1 ± 1.1 time
same,half-life,"[7]; male, human, plasma, oral, summary of Table 3, read-out: half-life",3 to 5 h
